tested on: subjects suffering from psoriasis; assay: Previous treatment(s) of the subjects (anamnesis); type: in vivo, human; conditions: Subject 4; previous treatment supplemented with moisturisers and emollients; responded well at first, more frequent relapses later
Description: The subject had been diagnosed with psoriasis for nearly 25 years ago and had previously used combinations of local corticosteroids and emollient and moisturizing creams. Further, the subject had also tried photo therapy as well as a topical tar based product (Skillingarydsalvan Original). […] Further, the subject experienced side-effects (e g skin damage, such as skin thinning, changes in pigmentation, easy bruising, stretch marks, redness and dilated surface blood vessels) typically seen with treatment with corticosteroids.
Previous treatment(s): The subject had used corticosteroids such as mometasone furoate, prednicarbate and most recently calcitriol, always supplementing the treatment with moisturisers and emollients.

Row | SMILES | effect of previous treatment over time
1 | C=C1/C(=C\C=C2/CCC[C@]3(C)[C@@H]([C@H](C)CCCC(C)(C)O)CC[C@@H]23)C[C@@H](O)C[C@@H]1O [calcitriol] | no longer as effective
2 | C[C@@H]1C[C@H]2[C@@H]3CCC4=CC(=O)C=C[C@]4(C)[C@@]3(Cl)[C@@H](O)C[C@]2(C)[C@@]1(OC(=O)c1ccco1)C(=O)CCl [mometasone furoate] | no longer as effective
3 | CCOC(=O)O[C@]1(C(=O)COC(=O)CC)CC[C@H]2[C@@H]3CCC4=CC(=O)C=C[C@]4(C)[C@H]3[C@@H](O)C[C@@]21C [prednicarbate] | no longer as effective

Reference: patent US20150216898A1, “COMPOSITION FOR TREATING PSORIASIS” (PSORIASIS+CREAMS SWEDEN AB, priority 2012, published 2015)
